The text below walks through data of patent US20090203716A1, “Pyrimidine low molecular weight ligands for modulating hormone receptors” (The Government of the United States of America as …, priority 2006, published 2009).

“Also recorded” adds a separate entry of the source. Some results are limits rather than exact numbers.

For one data set, the target named is T1, human LHCG receptor (Homo sapiens, UniProt P22888).
T1 construct: expressed in transfected cells
In words: intracellular cAMP accumulation, agonism at LHCGR stably expressed in HEK EM 293 cells. In kind it is cell-based. To be noted: for % Max. Resp. @ LHCGR in μM: % of maximum response of LHCGR to LH (1000 ng/ml); for EC50: read-out: EC50 (LHCGR) in μM [95% C.I.], cAMP, HEK EM 293 cells, dose response 0-100 μM compound. How it is done:
(§1) With reference to Table 1, exemplary disclosed compounds were evaluated against human TSH receptor and human LHCG receptor that were stably expressed in HEK 293 EM cells as previously described by Libert et al. (Biochem. Biophys. Res. Commun. 1989, 165, 1250-1255); and by Schulz et al. (Mol. Endocrinol. 1999, 13, 181-190). Cell surface expression of TSH receptor and LHCG receptor were determined via FACS analysis (Kleinau, G.; Jäschke, H.; Neumann, S.; Lättig, S.; Paschke, R.; Krause, G. J. Biol. Chem. 2004, 279, 51590-51600).
Following aspiration of the medium after incubation with compounds, cells were lysed using lysis buffer 1 of the cAMP Biotrak Enzymeimmunoassay (EIA) System (Amersham Biosciences). The cAMP content of the cell lysate was determined using the manufacturer's protocol. […] The potency (EC50) was obtained from dose response curves (0-100 μM compound) by data analysis with GraphPad Prism 4 for Windows. […] The data are presented as mean±SEM of two independent experiments, each performed in duplicate.
(§2) Transiently transfected cells were cultured for 48 hours before the cAMP assay. HEK-EM 293 cells stably expressing TSHR, LHCGR or FSHR were seeded into 24-well plates with a density of 2.2×10^5 cells/well 24 hours before the cAMP assay. After removal of growth medium, cells were incubated for 1 hour in HBSS (Cellgro) with 10 mM HEPES (Cellgro) containing 1 mM 3-isobutyl-1-methylxanthine (IBMX) (Sigma) and the ligand of interest in a humidified 5% CO2 incubator at 37° C. The intracellular cAMP content was determined with the cAMP Biotrak Enzymeimmunoassay (EIA) System (GE Healthcare). Data were analyzed using GraphPad Prism 4 for Windows. Receptor expression was measured as described in Jaschke et al., J Biol Chem 281:9841-9844.
On the technique in general: Cyclic AMP is a second messenger, typically raised through Gs and lowered through Gi signalling.

The next data set deals with T2, human TSH receptor (Homo sapiens, UniProt P16473).
T2 construct: expressed in transfected cells
T2 sequence (P16473 21-764): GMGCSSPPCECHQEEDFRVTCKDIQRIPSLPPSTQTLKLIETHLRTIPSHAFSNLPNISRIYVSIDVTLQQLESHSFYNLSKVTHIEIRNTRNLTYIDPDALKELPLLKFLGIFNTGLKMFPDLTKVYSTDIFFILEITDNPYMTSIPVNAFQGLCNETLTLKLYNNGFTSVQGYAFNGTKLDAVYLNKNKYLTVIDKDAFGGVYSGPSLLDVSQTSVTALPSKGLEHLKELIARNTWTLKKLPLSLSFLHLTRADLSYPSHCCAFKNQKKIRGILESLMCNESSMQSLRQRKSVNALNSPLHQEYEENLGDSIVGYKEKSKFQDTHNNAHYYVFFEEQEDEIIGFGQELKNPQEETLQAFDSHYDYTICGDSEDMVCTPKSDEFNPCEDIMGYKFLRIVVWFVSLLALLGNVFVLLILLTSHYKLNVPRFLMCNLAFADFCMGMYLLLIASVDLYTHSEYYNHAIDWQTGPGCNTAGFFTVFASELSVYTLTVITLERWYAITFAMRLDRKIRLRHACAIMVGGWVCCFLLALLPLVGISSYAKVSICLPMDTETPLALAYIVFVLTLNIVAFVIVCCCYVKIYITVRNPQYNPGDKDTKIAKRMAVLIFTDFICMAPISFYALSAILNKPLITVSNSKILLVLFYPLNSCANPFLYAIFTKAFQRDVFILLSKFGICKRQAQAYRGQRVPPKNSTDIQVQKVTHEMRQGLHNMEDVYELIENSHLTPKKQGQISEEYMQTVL
Kind of data set: intracellular cAMP accumulation, agonism at TSHR stably expressed in HEK EM 293 cells. The format is cell-based. Conditions: for % Max. Resp. @ TSHR in μM: % of maximum response of TSHR to TSH (100 mU/ml), * estimated maximum response at 100 μM compound; for EC50: cAMP, HEK EM 293 cells, dose response 0-100 μM compound, ** estimated EC50, no plateau. On the procedure:
as §1, with “51590-51600). Agonism of compounds 3-20 were determined via measurement of intracellular cyclic AMP accumulation. […] For example, […] certain compounds disclosed herein exerted no discernible effect on the FSH receptor.” for “51590-51600).”
Cells were cultured for 48 h in 24-well plates before incubation for 1 h in serum-free DMEM containing 1 mM 3-isobutyl-1-methylxanthine (IBMX) (SIGMA) and bovine TSH (1.8 μM) (SIGMA) or human LH (1000 ng/ml) (Dr. A. Parlow, NIDDK National Hormone and Pituitary Program) or compounds 3-19 (0-100 μM) in a humidified 5% CO2 incubator. Following aspiration of the medium after incubation with compounds, cells were lysed using lysis buffer 1 of the cAMP Biotrak Enzymeimmunoassay (EIA) System (Amersham Biosciences). The cAMP content of the cell lysate was determined using the manufacturer's protocol. The efficacy of receptor activation by small molecule modulators is expressed as % of maximum response of LHCG receptor or TSH receptor to LH or TSH, respectively. The potency (EC50) was obtained from dose response curves (0-100 μM compound) by data analysis with GraphPad Prism 4 for Windows. With reference to FIG. 1, intracellular cAMP production was determined in response to 100 μM of each compound and is expressed as % of maximum response of TSHR/LHCGR to TSH (100 mU/ml)/LH (1000 ng/ml). The data are presented as mean±SEM of two independent experiments, each performed in duplicate.
as §2

Another data set in a line: solubility. The format is physicochemical. To be noted: compared to compound 52.
Another data set concerns the target TSHR (Homo sapiens, UniProt P16473). Kind of data set: inhibition of TSH-mediated cAMP response in HEK-EM 293 cells stably expressing TSHR. The format is cell-based. Further details: expressed in transfected cells. How it is done: as §2
The TSH-mediated cAMP response of TSHR was inhibited by a maximum of 70.8±5.5% at 30 μM compound 52. […] Compound 52 has no activity at FSHR.
To exclude the possibility that compound 52 might be acting independently of TSHR by building aggregates with TSH, thereby inhibiting the TSH-induced response, tests were conducted for a possible aggregation between these two ligands. Compound 52 and TSH were preincubated for up to 15 minutes before addition to HEK-EM 293 cells stably expressing TSHR. […] There was no difference in the antagonistic effect whether TSH and compound 52 were preincubated together or not (data not shown) thereby excluding the possibility that its effect was caused by aggregation with TSH.

As a reminder, the EC50 is the concentration needed to bring the measured effect to its halfway point.

Sequence of TSHR (P16473 21-764): as above
T1 sequence (P22888 27-699): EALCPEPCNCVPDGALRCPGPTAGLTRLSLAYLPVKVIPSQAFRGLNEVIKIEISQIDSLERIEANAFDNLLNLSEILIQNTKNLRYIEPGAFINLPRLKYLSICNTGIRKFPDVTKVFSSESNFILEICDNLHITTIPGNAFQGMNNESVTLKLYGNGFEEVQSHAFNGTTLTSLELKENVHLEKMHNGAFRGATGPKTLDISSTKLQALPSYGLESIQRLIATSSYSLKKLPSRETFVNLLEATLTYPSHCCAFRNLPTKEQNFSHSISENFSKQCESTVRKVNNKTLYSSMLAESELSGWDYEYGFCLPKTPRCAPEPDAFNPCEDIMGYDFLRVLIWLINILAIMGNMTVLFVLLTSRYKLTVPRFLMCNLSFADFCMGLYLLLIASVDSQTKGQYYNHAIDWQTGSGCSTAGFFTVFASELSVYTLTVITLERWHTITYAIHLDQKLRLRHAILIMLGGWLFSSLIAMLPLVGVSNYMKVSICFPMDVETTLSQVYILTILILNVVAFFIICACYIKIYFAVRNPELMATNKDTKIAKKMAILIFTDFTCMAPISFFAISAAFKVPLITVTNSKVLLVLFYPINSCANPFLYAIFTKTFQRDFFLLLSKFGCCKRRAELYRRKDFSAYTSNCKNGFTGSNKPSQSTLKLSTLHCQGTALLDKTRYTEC

`COc1cccc(-c2nc(SC)nc3sc(C(=O)NCc4ccccc4)c(N)c23)c1` [Compound 14, 5-amino-N-benzyl-4-(3-methoxyphenyl)-2-(methylthio)thieno[2,3-d]pyrimidine-6-carboxamide]: on human LHCG receptor, the “% Max. Resp. @ LHCGR in μM” value amounted to 7.8 ± 2.7%. Besides, the “% Max. Resp. @ TSHR in μM” value at human TSH receptor is on record as 3.0 ± 1.2%.

Turning to `CSc1nc(-c2cccc(F)c2)c2c(N)c(C(=O)NC(C)(C)C)sc2n1` [Compound 18, N-tert-butyl-5-amino-4-(3-fluorophenyl)-2-(methylthio)thieno[2,3-d]pyrimidine-6-carboxamide], the EC50 on human LHCG receptor was 1.2 µM. Moreover, the “% Max. Resp. @ TSHR in μM” value on human TSH receptor was 8.1 ± 1.7%.

Consider `COc1cccc(-c2nc(SC)nc3sc(C(=O)N(C)C(C)(C)C)c(N)c23)c1` [Compound 7, N-tert-butyl-5-amino-4-(3-methoxyphenyl)-N-methyl-2-(methylthio)thieno[2,3-d]pyrimidine-6-carboxamide], for which, on human LHCG receptor, the “% Max. Resp. @ LHCGR in μM” value is recorded as 47.8 ± 2.8% and the EC50 turned out to be 0.8 µM. For the same molecule, the “% Max. Resp. @ TSHR in μM” value at human TSH receptor was 3.6 ± 1.9%.

As to `COc1cccc(-c2nc(SC)nc3sc(C(=O)NN(C)C)c(N)c23)c1` [Compound 9, 5-amino-4-(3-methoxyphenyl)-N′N′-dimethyl-2-(methylthio)thieno[2,3-d]pyrimidine-6-carbohydrazide], at human LHCG receptor, the “% Max. Resp. @ LHCGR in μM” value is listed as 11.0 ± 1.5%. Besides, on human TSH receptor, the “% Max. Resp. @ TSHR in μM” value is on record as 4.0 ± 0.1%.

Consider `C[S+]([O-])C/C=C/c1ccc(-c2nc([S+](C)[O-])nc3sc(C(=O)NC(C)(C)C)c(N)c23)cc1` (stereo not drawn) [Compound 52/3], for which the solubility result in the data set “solubility” is “improved solubility”. At TSHR, the “antagonistic activity at TSHR in cAMP assay” value is on record as “antagonist activity similar to compound 52; also recorded: antagonistic activity”.

Take `CCNC(=O)c1sc2nc(SC)nc(-c3cccc(OC)c3)c2c1N` [Compound 6, 5-amino-N-(ethyl)-4-(3-methoxyphenyl)-2-(methylthio)thieno[2,3-d]pyrimidine-6-carboxamide]: the “% Max. Resp. @ LHCGR in μM” value on human LHCG receptor is listed as 26.9 ± 4.8%. For the same molecule, the “% Max. Resp. @ TSHR in μM” value on human TSH receptor is 2.3 ± 0.4%.

Consider `COc1cccc(-c2nc(SC)nc3sc(C(=O)NNC(C)(C)C)c(N)c23)c1` [Compound 10, N′-tert-butyl-5-amino-4-(3-methoxyphenyl)-2-(methylthio)thieno[2,3-d]pyrimidine-6-carbohydrazide], for which the “% Max. Resp. @ LHCGR in μM” value at human LHCG receptor amounted to 6.0 ± 3.1%. In addition, on human TSH receptor, the “% Max. Resp. @ TSHR in μM” value was 6.4 ± 0.6%.

For `COc1cccc(-c2nc(SC)nc3sc(C(=O)NN)c(N)c23)c1` [Compound 8, 5-amino-4-(3-methoxyphenyl)-2-(methylthio)thieno[2,3-d]pyrimidine-6-carbohydrazide], the “% Max. Resp. @ LHCGR in μM” value at human LHCG receptor worked out at 8.5 ± 3.6%. For the same molecule, the “% Max. Resp. @ TSHR in μM” value at human TSH receptor is 6.1 ± 0.8%.

As to `COc1cccc(-c2nc(SC)nc3sc(C(=O)NC(C)(C)C)c(N)c23)c1F` [Compound 17, N-tert-butyl-5-amino-4-(2-fluoro-3-methoxyphenyl)-2-(methylthio)thieno[2,3-d]pyrimidine-6-carboxamide], on human LHCG receptor, the “% Max. Resp. @ LHCGR in μM” value came to 46.3 ± 6.6% and the EC50 worked out at 1.5 µM. Further, at human TSH receptor, the “% Max. Resp. @ TSHR in μM” value was >24.0* % and the EC50 is 11500 nM.

Consider `CSc1nc(-c2cccc(O)c2)c2c(N)c(C(=O)NC(C)(C)C)sc2n1` [Compound 19, N-tert-butyl-5-amino-4-(3-hydroxyphenyl)-2-(methylthio)thieno[2,3-d]pyrimidine-6-carboxamide], for which, at human LHCG receptor, the “% Max. Resp. @ LHCGR in μM” value is given as 63.9 ± 14.2% and the EC50 came to 1.9 µM. The “% Max. Resp. @ TSHR in μM” value on human TSH receptor was 11.2 ± 1.0%.

For the molecule `CSc1nc(-c2ccc(/C=C/CS(C)(=O)=O)cc2)c2c(N)c(C(=O)NC(C)(C)C)sc2n1` [Compound 52/1], the “antagonistic activity at TSHR in cAMP assay” value on TSHR is on record as “no antagonistic activity”.

With `COc1cccc(-c2nc(SC)nc3sc(C(=O)NNC(=O)OC(C)(C)C)c(N)c23)c1` [Compound 11, N′-Boc-5-amino-4-(3-methoxyphenyl)-2-(methylthio)thieno[2,3-d]pyrimidine-6-carbohydrazide], the “% Max. Resp. @ LHCGR in μM” value on human LHCG receptor is reported as 2.4 ± 0.5%. The “% Max. Resp. @ TSHR in μM” value at human TSH receptor is on record as 1.9 ± 0.4%.

Consider `COc1cccc(-c2nc(SC)nc3sc(C(=O)NC(C)(C)C)c(N)c23)c1OC` [Compound 16, N-tert-butyl-5-amino-4-(2,3-dimethoxyphenyl)-2-(methylthio)thieno[2,3-d]pyrimidine-6-carboxamide], for which, at human LHCG receptor, the “% Max. Resp. @ LHCGR in μM” value is listed as 50.1 ± 3.6% and the EC50 was found to be 0.8 µM. At human TSH receptor, the “% Max. Resp. @ TSHR in μM” value is reported as 3.0 ± 0.9%.

For the molecule `COc1cccc(-c2nc(SC)nc3sc(C(=O)NCCc4ccccc4)c(N)c23)c1` [Compound 15, 5-amino-4-(3-methoxyphenyl)-2-(methylthio)-N-phenethylthieno[2,3-d]pyrimidine-6-carboxamide], the “% Max. Resp. @ LHCGR in μM” value at human LHCG receptor amounted to 25.6 ± 5.4%. Moreover, on human TSH receptor, the “% Max. Resp. @ TSHR in μM” value is given as 4.3 ± 0.4%.

Turning to `CCOC(=O)c1sc2nc(SC)nc(-c3cccc(OC)c3)c2c1N` [Compound 4, ethyl-5-amino-4-(3-methoxyphenyl)-2-(methylthio)thieno[2,3-d]pyrimidine-6-carboxylate], the “% Max. Resp. @ LHCGR in μM” value at human LHCG receptor came to 4.2 ± 2.2%. At human TSH receptor, the “% Max. Resp. @ TSHR in μM” value is recorded as 1.5 ± 0.2%.

Regarding `COc1cccc(-c2nc(SC)nc3sc(C(=O)NCCO)c(N)c23)c1` [Compound 12, 5-amino-4-(3-methoxyphenyl)-N-(2-hydroxyethyl)-2-(methylthio)thieno[2,3-d]pyrimidine-6-carboxamide], the “% Max. Resp. @ LHCGR in μM” value on human LHCG receptor is 20.5 ± 2.7%. In addition, the “% Max. Resp. @ TSHR in μM” value at human TSH receptor is listed as 2.9 ± 0.5%.

Take `COc1cccc(-c2nc(SC)nc3sc(C(=O)NCC#N)c(N)c23)c1` [Compound 13, 5-amino-N-(cyanomethyl)-4-(3-methoxyphenyl)-2-(methylthio)thieno[2,3-d]pyrimidine-6-carboxamide]: the “% Max. Resp. @ LHCGR in μM” value at human LHCG receptor is reported as 20.3 ± 2.1%. Also, the “% Max. Resp. @ TSHR in μM” value at human TSH receptor is listed as 3.6 ± 0.6%.

For `COc1cccc(-c2nc(SC)nc3sc(C(=O)OC(C)(C)C)c(N)c23)c1` [Compound 5, tert-butyl-5-amino-4-(3-methoxyphenyl)-2-(methylthio)thieno[2,3-d]pyrimidine-6-carboxylate], on human LHCG receptor, the “% Max. Resp. @ LHCGR in μM” value is given as 23.8 ± 3.3% and the EC50 was determined as 1.1 µM. At human TSH receptor, the “% Max. Resp. @ TSHR in μM” value was >30.3* % and the EC50 is 11900 nM.
